The assay has as its target T1, human apelin receptor (Homo sapiens, UniProt P35414).
T1 construct: expressed in transfected cells
T1 sequence (P35414 1-380): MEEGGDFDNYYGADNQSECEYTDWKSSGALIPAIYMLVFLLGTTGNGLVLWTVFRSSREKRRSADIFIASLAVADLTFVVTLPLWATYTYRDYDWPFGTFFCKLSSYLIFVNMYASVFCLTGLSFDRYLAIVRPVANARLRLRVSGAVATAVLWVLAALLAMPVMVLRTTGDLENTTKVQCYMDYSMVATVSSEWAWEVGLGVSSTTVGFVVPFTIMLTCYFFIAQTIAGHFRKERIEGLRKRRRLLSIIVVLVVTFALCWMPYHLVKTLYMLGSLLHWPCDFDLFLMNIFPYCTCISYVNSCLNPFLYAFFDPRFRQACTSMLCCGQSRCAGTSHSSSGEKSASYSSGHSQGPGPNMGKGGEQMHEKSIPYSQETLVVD
Nature of the assay: Determination of agonism on the human apelin receptor by a calcium fluorescence assay (FLIPR). The class given is cell-based. The following applies: HEK293 cells stably transfected with human apelin receptor and Giaq protein, Fluo-4 calcium fluorescence, read-out: EC50 (APJ agonism). In outline:
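Agonist EC50s come from peak intracellular calcium transients recorded by FLIPR Tetra, scaled to the 1 μM apelin-13 maximum per plate. Test system: HEK293 stably transfected with human apelin receptor plus Giaq, Fluo-4-loaded (4 μM, 1 h, 37 °C, pH 7.4 buffer with probenecid); ≥7 concentrations, triplicates.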

Among the data in patent US9156796B2, “Benzoimidazole-carboxylic acid amide derivatives as APJ receptor modulators” (SANOFI, priority 2013, dated 2015) are EC50 values, retold here.

For orientation: EC50 means the concentration needed to bring the measured effect to its halfway point.

With `CCC(CC)n1c(Cc2cccs2)nc2cc(C(=O)NC(C)(CC(C)C)C(=O)O)ccc21` (single isomer, unassigned) [Example 441], the EC50 was 1.52 µM.
With `CCC(C)[C@H](NC(=O)c1ccc2c(c1)nc(Cc1cccs1)n2C(CC)CC)C(=O)O` (stereo partly drawn) [Example 121, (S)-2-{[1-(1-Ethyl-propyl)-2-thiophen-2-ylmethyl-1H-benzoimidazole-5-carbonyl]-amino}-3-methyl-pentanoic acid] the figure was 0.074 µM.
Turning to `CCC(CC)n1c(Cc2cccs2)nc2cc(C(=O)N[C@@H](CC(C)C)C(=O)NCc3ncco3)ccc21` [Example 254, 1-(1-Ethyl-propyl)-2-thiophen-2-ylmethyl-1H-benzoimidazole-5-carboxylic acid {(S)-3-methyl-1-[(oxazol-2-ylmethyl)-carbamoyl]-butyl}-amide], the half-maximal effective concentration (EC50) is 0.233 µM.
As for `CCC(CC)n1c(Cc2cccs2)nc2cc(C(=O)N[C@@H](CC(C)C)C(=O)NC3CCCC3)ccc21` [Example 237, 1-(1-Ethyl-propyl)-2-thiophen-2-ylmethyl-1H-benzoimidazole-5-carboxylic acid ((S)-1-cyclopentylcarbamoyl-3-methyl-butyl)-amide], the EC50 is 2.48 µM.
With `CCCCC(CC(=O)O)NC(=O)c1ccc2c(c1)nc(Cc1cccs1)n2[C@@H]1CCCC[C@H]1C` (single isomer, unassigned) [Example 460] the figure was 0.122 µM.
`CCC(C)Cn1c(Cc2ccsc2)nc2cc(C(=O)N[C@@H](CC(C)C)C(=O)O)ccc21` (stereo partly drawn) [Example 137, (S)-4-Methyl-2-{[1-(2-methyl-butyl)-2-thiophen-3-ylmethyl-1H-benzoimidazole-5-carbonyl]-amino}-pentanoic acid]: the EC50 is 9.5 µM.
With `CCC(CC)n1c(Cc2cccs2)nc2cc(C(=O)NC(C)(CC(C)C)C(=O)O)ccc21` (single isomer, unassigned) [Example 440] the figure was 6.59 µM; with `CCC(CC)n1c(Cc2cccs2)nc2cc(C(=O)N[C@@H](CC(C)C)C(=O)Nc3ccc(N(CC)CC)cc3)ccc21` [Example 242, 1-(1-Ethyl-propyl)-2-thiophen-2-ylmethyl-1H-benzoimidazole-5-carboxylic acid [(S)-1-(4-diethylamino-phenylcarbamoyl)-3-methyl-butyl]-amide], 5.93 µM.
As for `C[C@@H]1CCCC[C@H]1n1c(Cc2cccs2)nc2cc(C(=O)N[C@H](CC(=O)O)CC3CCCC3)ccc21` [Example 61, (S)-4-Cyclopentyl-3-{[1-((1R,2R)-2-methyl-cyclohexyl)-2-thiophen-2-ylmethyl-1H-benzoimidazole-5-carbonyl]-amino}-butyric acid], the EC50 was determined as 0.075 µM.
With `CCC(CC)n1c(Cc2cccs2)nc2cc(C(=O)N[C@@H](CC(C)C)C(=O)N(C)CCc3ccccn3)ccc21` [Example 240, 1-(1-Ethyl-propyl)-2-thiophen-2-ylmethyl-1H-benzoimidazole-5-carboxylic acid {(S)-3-methyl-1-[methyl-(2-pyridin-2-yl-ethyl)-carbamoyl]-butyl}-amide] the figure was 0.614 µM.
With `CCC(CC)n1c(Cc2cscn2)nc2cc(C(=O)N[C@H](COC)CC(C)C)ccc21` [Example 206, 1-(1-Ethyl-propyl)-2-thiazol-4-ylmethyl-1H-benzoimidazole-5-carboxylic acid ((S)-1-methoxymethyl-3-methyl-butyl)-amide] the figure was 2.3 µM; with `CCC(CC)n1c(Cc2cccs2)nc2cc(C(=O)N[C@@H](CC(C)C)C(=O)NCc3ccc(OC)cc3)ccc21` [Example 236, 1-(1-Ethyl-propyl)-2-thiophen-2-ylmethyl-1H-benzoimidazole-5-carboxylic acid [(S)-1-(4-methoxy-benzylcarbamoyl)-3-methyl-butyl]-amide], 3.87 µM.
With `CCC(CC)n1c(Cc2cccs2)nc2cc(C(=O)N[C@@H](CC(C)C)C(=O)NCCC3CCCCN3Cc3ccccc3)ccc21` (stereo partly drawn) [Example 307, 1-(1-Ethyl-propyl)-2-thiophen-2-ylmethyl-1H-benzoimidazole-5-carboxylic acid {(S)-1-[2-(1-benzyl-piperidin-2-yl)-ethylcarbamoyl]-3-methyl-butyl}-amide] the figure was 1.83 µM.
